# Assay results: US10765754B2, “Compositions and methods related to inhibition of respiratory syncytial virus entry” (priority 2015, dated 2020)
# Positions of bridges follow the written chain, without caps; N, C: chain ends. Non-standard residues stand in square brackets, D forms with d. Residues, ends and D or L forms follow the SMILES beside them.
# Molecular target: T1, RSV-B/IZN45 (Human respiratory syncytial virus B, UniProt O36634)
# T1 construct: N-trimer Mimics Synthesized; made in house; host or cells: chemical peptide synthesis
# T1 sequence (O36634 163-207, added parts left off): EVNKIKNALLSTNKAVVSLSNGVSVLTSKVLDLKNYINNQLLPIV
# Experiment: biochemical
# Assay type: binding
# Conditions: synthesized peptide; RSV-B/IZN45; KD determined by SPR
# Description: IZN45 N-trimer mimic comprises the IZ domain, a highly soluble, designed coiled-coil that helps solubilize the N-trimer, along with the C-terminal (bottom) 45 residues of the RSV N-trimer. IZN45 encompasses the full ordered portion of the N-trimer except for three N-terminal residues (removed to maintain a continuous heptad repeat with the IZ domain). The interactions between 35-residue RSV C-peptides, T108 and T118 (Lambert et al., 1996, Proc. Natl. Acad. Sci. USA 93:2186-2191), and IZN45 was examined by surface plasmon resonance (SPR). SPR is a gold standard assay to measure the kinetics and affinity of biological interactions. […] The Biotinylated L-form of RSV target IZN45 was captured onto one lane of a NeutrAvidin coated SPR chip. A mutant version of IZN45 containing four mutated residues along the N-trimer groove designed to disrupt binding (IZN45 Full Mut, negative control) was captured onto a separate lane of the NeutrAvidin chip. T118, corresponding to the C-terminal portion of the RSV F ectodomain, which is known to interact with the RSV N-trimer groove, was flowed over the various surfaces. […] The surfaces were regenerated with a detergent (0.1% SDS) after each injection of analyte. Various concentrations of T118 were measured in duplicate or triplicate injections. D-peptide interactions with IZN45 and IZN45-Full Mut surfaces were also measured using this method.
# Peptides from the ‘winning’ phage clones from each library were synthesized as D-peptides. If solubility of the peptides was limited, N- or C-terminal charged residue(s) (e.g., lysine) were attached as necessary as previously described for HIV peptides in Eckert et al., 1999, Cell 99:103-15, incorporated by reference in its entirety. Binding affinity and kinetics of the D-peptide inhibitors to the IZN45 and IZN45 mutants was characterized by SPR (Biacore 3000), using methods as described in Welch et al., 2007, Proc. Natl. Acad. Sci. USA 104:16828-33, incorporated by reference in its entirety.
row,SMILES,Kd
1,CC[C@@H](C)[C@H]1NC(=O)[C@@H](CCCCN)NC(=O)[C@H](NC(=O)[C@@H](C)NC(=O)CN)CSSC[C@H](C(=O)N[C@H](C)C(=O)N[C@H](C)C(=O)NCC(=O)NCC(N)=O)NC(=O)[C@@H](CC(=O)O)NC(=O)[C@@H](Cc2c[nH]cn2)NC(=O)[C@@H](Cc2c[nH]c3ccccc23)NC(=O)[C@@H](Cc2c[nH]cn2)NC(=O)[C@@H](Cc2ccccc2)NC(=O)[C@@H](CC(C)C)NC(=O)[C@@H](CC(=O)O)NC(=O)[C@@H](Cc2c[nH]cn2)NC1=O [CX10C-119-GG] (H-G[dA][dC][dK][dI][dH][dD][dL][dF][dH][dW][dH][dD][dC][dA][dA]GG-NH2; disulfide 3-14),130 µM
2,CC[C@@H](C)[C@@H](NC(=O)[C@H](NC(=O)[C@@H](CCCCN)NC(=O)[C@@H](CO)NC(C)=O)C(C)C)C(=O)N[C@H](CC(C)C)C(=O)N1CCC[C@@H]1C(=O)N[C@H](CCC(=O)O)C(=O)N1CCC[C@@H]1C(=O)N[C@H](Cc1ccccc1)C(=O)N[C@H](Cc1c[nH]c2ccccc12)C(=O)N[C@H](Cc1c[nH]c2ccccc12)C(=O)N1CCC[C@@H]1C(=O)NCC(=O)NCC(N)=O [Ac-X12-47-GG] (Ac-[dS][dK][dV][dI][dL][dP][dE][dP][dF][dW][dW][dP]GG-NH2),15 µM
3,CC[C@@H](C)[C@H]1NC(=O)[C@@H](CCCCN)NC(=O)[C@H](NC(=O)[C@@H](C)NC(=O)CNC(C)=O)CSSC[C@H](C(=O)N[C@H](C)C(=O)N[C@H](C)C(=O)NCC(=O)NCC(N)=O)NC(=O)[C@@H](CC(=O)O)NC(=O)[C@@H](Cc2c[nH]cn2)NC(=O)[C@@H](Cc2c[nH]c3ccccc23)NC(=O)[C@@H](Cc2c[nH]cn2)NC(=O)[C@@H](Cc2ccccc2)NC(=O)[C@@H](CC(C)C)NC(=O)[C@@H](CC(=O)O)NC(=O)[C@@H](Cc2c[nH]cn2)NC1=O [Ac-CX10C-119-GG] (Ac-G[dA][dC][dK][dI][dH][dD][dL][dF][dH][dW][dH][dD][dC][dA][dA]GG-NH2; disulfide 3-14),30 µM
4,CC[C@@H](C)[C@@H](NC(C)=O)C(=O)N[C@H](CO)C(=O)N[C@H](CC(C)C)C(=O)N1CCC[C@@H]1C(=O)N[C@@H](C(=O)N1CCC[C@@H]1C(=O)N[C@@H](C(=O)N[C@H](Cc1c[nH]c2ccccc12)C(=O)N[C@H](Cc1c[nH]c2ccccc12)C(=O)N1CCC[C@@H]1C(=O)N[C@H](CO)C(=O)N[C@@H](C(=O)NCC(=O)NCC(N)=O)[C@H](C)O)[C@H](C)O)[C@H](C)O [Ac-X12-45-GG] (Ac-[dI][dS][dL][dP][dT][dP][dT][dW][dW][dP][dS][dT]GG-NH2),25 µM
5,CC[C@@H](C)[C@@H](N)C(=O)N[C@H](CO)C(=O)N[C@H](CC(C)C)C(=O)N1CCC[C@@H]1C(=O)N[C@@H](C(=O)N1CCC[C@@H]1C(=O)N[C@@H](C(=O)N[C@H](Cc1c[nH]c2ccccc12)C(=O)N[C@H](Cc1c[nH]c2ccccc12)C(=O)N1CCC[C@@H]1C(=O)N[C@H](CO)C(=O)N[C@@H](C(=O)NCC(=O)N[C@H](CCCCN)C(N)=O)[C@H](C)O)[C@H](C)O)[C@H](C)O [X12-45-GK] (H-[dI][dS][dL][dP][dT][dP][dT][dW][dW][dP][dS][dT]G[dK]-NH2),6 µM
6,CSCC[C@@H](NC(=O)[C@@H](Cc1c[nH]c2ccccc12)NC(=O)[C@@H](Cc1c[nH]c2ccccc12)NC(=O)[C@@H](Cc1ccc(O)cc1)NC(=O)[C@@H](CCCCN)NC(=O)[C@@H](CC(C)C)NC(=O)[C@H](N)CO)C(=O)N[C@H](CCC(=O)O)C(=O)N[C@H](CCC(=O)O)C(=O)N[C@H](CC(C)C)C(=O)N1CCC[C@@H]1C(=O)N[C@H](CC(C)C)C(=O)N1CCC[C@@H]1C(=O)N[C@H](CCCCN)C(=O)N[C@H](Cc1c[nH]c2ccccc12)C(=O)N[C@H](Cc1c[nH]c2ccccc12)C(N)=O [X16-18] (H-[dS][dL][dK][dY][dW][dW][dM][dE][dE][dL][dP][dL][dP][dK][dW][dW]-NH2),16 µM
7,CC[C@@H](C)[C@@H](NC(=O)[C@H](NC(=O)[C@@H](CCCCN)NC(=O)[C@H](N)CO)C(C)C)C(=O)N[C@H](CC(C)C)C(=O)N1CCC[C@@H]1C(=O)N[C@H](CCC(=O)O)C(=O)N1CCC[C@@H]1C(=O)N[C@H](Cc1ccccc1)C(=O)N[C@H](Cc1c[nH]c2ccccc12)C(=O)N[C@H](Cc1c[nH]c2ccccc12)C(=O)N1CCC[C@@H]1C(N)=O [X12-47] (H-[dS][dK][dV][dI][dL][dP][dE][dP][dF][dW][dW][dP]-NH2),10 µM
8,CC[C@@H](C)[C@@H](N)C(=O)N[C@H](CO)C(=O)N[C@H](CC(C)C)C(=O)N1CCC[C@@H]1C(=O)N[C@@H](C(=O)N1CCC[C@@H]1C(=O)N[C@@H](C(=O)N[C@H](Cc1c[nH]c2ccccc12)C(=O)N[C@H](Cc1c[nH]c2ccccc12)C(=O)N1CCC[C@@H]1C(=O)N[C@H](CO)C(=O)N[C@@H](C(=O)NCC(=O)NCC(N)=O)[C@H](C)O)[C@H](C)O)[C@H](C)O [X12-45-GG] (H-[dI][dS][dL][dP][dT][dP][dT][dW][dW][dP][dS][dT]GG-NH2),11 µM
9,CSCC[C@@H](NC(=O)[C@@H](Cc1c[nH]c2ccccc12)NC(=O)[C@@H](Cc1c[nH]c2ccccc12)NC(=O)[C@@H](Cc1ccc(O)cc1)NC(=O)[C@@H](CCCCN)NC(=O)[C@@H](CC(C)C)NC(=O)[C@@H](CO)NC(C)=O)C(=O)N[C@H](CCC(=O)O)C(=O)N[C@H](CCC(=O)O)C(=O)N[C@H](CC(C)C)C(=O)N1CCC[C@@H]1C(=O)N[C@H](CC(C)C)C(=O)N1CCC[C@@H]1C(=O)N[C@H](CCCCN)C(=O)N[C@H](Cc1c[nH]c2ccccc12)C(=O)N[C@H](Cc1c[nH]c2ccccc12)C(N)=O [Ac-X16-18] (Ac-[dS][dL][dK][dY][dW][dW][dM][dE][dE][dL][dP][dL][dP][dK][dW][dW]-NH2),11 µM
10,CC[C@@H](C)[C@@H](NC(C)=O)C(=O)N[C@H](CO)C(=O)N[C@H](CC(C)C)C(=O)N1CCC[C@@H]1C(=O)N[C@@H](C(=O)N1CCC[C@@H]1C(=O)N[C@@H](C(=O)N[C@H](Cc1c[nH]c2ccccc12)C(=O)N[C@H](Cc1c[nH]c2ccccc12)C(=O)N1CCC[C@@H]1C(=O)N[C@H](CO)C(=O)N[C@@H](C(=O)NCC(=O)N[C@H](CCCCN)C(N)=O)[C@H](C)O)[C@H](C)O)[C@H](C)O [Ac-X12-45-GK] (Ac-[dI][dS][dL][dP][dT][dP][dT][dW][dW][dP][dS][dT]G[dK]-NH2),23 µM
11,CC(C)C[C@H]1NC(=O)[C@@H](CC(=O)O)NC(=O)[C@@H](Cc2c[nH]c3ccccc23)NC(=O)[C@@H]([C@H](C)O)NC(=O)[C@@H](Cc2c[nH]cn2)NC(=O)[C@H](NC(=O)[C@@H](C)NC(=O)CN)CSSC[C@H](C(=O)N[C@H](C)C(=O)N[C@H](C)C(=O)NCC(=O)N[C@H](CCCCN)C(N)=O)NC(=O)[C@@H](C(C)C)NC(=O)[C@@H](CC(=O)O)NC(=O)[C@@H](CC(C)C)NC(=O)[C@@H](Cc2c[nH]cn2)NC(=O)[C@@H](CC(N)=O)NC1=O [CX10C-86-GK] (H-G[dA][dC][dH][dT][dW][dD][dL][dN][dH][dL][dD][dV][dC][dA][dA]G[dK]-NH2; disulfide 3-14),350 µM
12,CC[C@@H](C)[C@H]1NC(=O)[C@@H](CCCCN)NC(=O)[C@H](NC(=O)[C@@H](C)NC(=O)CN)CSSC[C@H](C(=O)N[C@H](C)C(=O)N[C@H](C)C(N)=O)NC(=O)[C@@H](CC(=O)O)NC(=O)[C@@H](Cc2c[nH]cn2)NC(=O)[C@@H](Cc2c[nH]c3ccccc23)NC(=O)[C@@H](Cc2c[nH]cn2)NC(=O)[C@@H](Cc2ccccc2)NC(=O)[C@@H](CC(C)C)NC(=O)[C@@H](CC(=O)O)NC(=O)[C@@H](Cc2c[nH]cn2)NC1=O [CX10C-119] (H-G[dA][dC][dK][dI][dH][dD][dL][dF][dH][dW][dH][dD][dC][dA][dA]-NH2; disulfide 3-14),100 µM
13,CC[C@@H](C)[C@@H](NC(=O)[C@@H](CC(=O)O)NC(=O)[C@@H](CC(=O)O)NC(=O)[C@@H](Cc1c[nH]c2ccccc12)NC(=O)[C@@H](Cc1c[nH]c2ccccc12)NC(=O)[C@H]1CCCN1C(=O)[C@@H](CCC(N)=O)NC(=O)[C@@H](CC(C)C)NC(=O)[C@H]1CCCN1C(=O)[C@@H](CC(C)C)NC(=O)[C@@H](Cc1c[nH]c2ccccc12)NC(=O)[C@H](N)Cc1c[nH]cn1)C(=O)N1CCC[C@@H]1C(=O)N[C@@H](C(=O)N[C@H](Cc1c[nH]c2ccccc12)C(=O)N[C@H](Cc1c[nH]cn1)C(=O)NCC(=O)N[C@H](CCCCN)C(N)=O)C(C)C [X16-20-GK] (H-[dH][dW][dL][dP][dL][dQ][dP][dW][dW][dD][dD][dI][dP][dV][dW][dH]G[dK]-NH2),2 µM
14,CC[C@@H](C)[C@@H](NC(=O)[C@H](NC(=O)[C@@H](CCCCN)NC(=O)[C@H](N)CO)C(C)C)C(=O)N[C@H](CC(C)C)C(=O)N1CCC[C@@H]1C(=O)N[C@H](CCC(=O)O)C(=O)N1CCC[C@@H]1C(=O)N[C@H](Cc1ccccc1)C(=O)N[C@H](Cc1c[nH]c2ccccc12)C(=O)N[C@H](Cc1c[nH]c2ccccc12)C(=O)N1CCC[C@@H]1C(=O)NCC(=O)NCC(N)=O [X12-47-GG] (H-[dS][dK][dV][dI][dL][dP][dE][dP][dF][dW][dW][dP]GG-NH2),17 µM
